Assay results: patent publication US12410189B2, “Polymorphs and solid forms of (S)-2-2((2-((S)-4-(difluoromethyl)-2-oxooxazolidin-3-yl)-5,6-dihydrobenzo[f]imidazo[1,2-d][1,4]oxazepin-9-yl)amino)propanamide, and methods of production” (Genentech, Inc., priority 2017, dated 2025)
≈ marks a conversion by molar mass, not a printed value. Entries after “also recorded” stand apart in the source; their conditions may differ. Each block holds one molecule with its values, some of them ahead of it.

What was measured:
[1] = Particle size distribution analysis (PSD); type: physicochemical
Experimental: Particle size analysis was performed using a Malvern Mastersizer 2000 instrument equipped with a Hydros 2000SM wet dispersion attachment (Malvern Instruments Ltd., Malvern, UK). ˜30 mg of API was weighed into a vial and 1 mL of 0.1% Span 85 in heptane was added. The vial was sonicated for 5 seconds, about 0.3 mL was added to the sampler at a stir speed of 1500 rpm, and a PSD was performed at an obscuration of 10-20%. The sample was then sonicated for 10 more seconds (a total of 15 seconds), about 0.3 mL was added to the sampler, a PLM image was acquired, and PSD was performed. The same sample was then sonicated for another 15 seconds (a total of 30 seconds), about 0.3 mL was added, a PLM photo was taken and PSD was performed. From the sonication study, an appropriate sonication period was chosen. The PLM images and PSDs were used to determine how much sonication the sample needed to disperse clumps but prevent or minimize crystal fracturing. Three more samples, of ˜10 mg, were weighed into vials and 1 mL of 0.1% Span 85 in heptane was added. The samples were sonicated for the sonication period determined in the sonication study. The final PSD analysis was performed in triplicate using the predetermined sonication period. The instrument was rinsed twice with isopropyl alcohol (IPA) and once with heptane before being filled with 0.1% Span 85 in heptane for each sample. After the last sample had run, the instrument was rinsed with IPA once.

[2] = Water sorption analysis (dynamic vapor sorption); type: physicochemical
Experimental: About 5-6 mg of powder sample was placed in the sample pan of an automated water sorption analyzer (Q5000SA, TA instruments, New Castle, DE) at 25° C. and a nitrogen flow rate of 200 mL/min. The sample was initially “dried” at 0% RH for a total of 600 minutes (at 60 followed by 25° C.), following which it was subjected to progressive increase in RH from 0-90%, in increments of 10% with a dwell time of 240 minutes at every RH with a dm/dt window of 0.001% for 30 minutes. This was followed by a progressive decrease in RH in decrements of 10% back to 0% RH, using the same protocol. For hydrate samples, the process was reversed where the starting RH was maintained at 90%, followed by a progressive step-wise lowering to 0%, followed by similar step wise increase back to 90%. This was done to ensure that the water of hydration is retained at the start of the experiment.

[3] = Slurry of Form A in DI water, anhydrate to hydrate conversion by XRPD; type: physicochemical
Experimental: Conversion of anhydrous Form A to Form B was investigated. […] To check for hydrate formation, Form A was slurried in DI water for 4 days (RT). Form conversion (anhydrate to hydrate) was initiated at 12 hours and was complete within 4 days, as detected by XRPD with reference to Form B. Anhydrate (Form A) to hydrate (Form B) conversion was measured upon slurrying in DI water for 4 days. […] Form conversion is complete by 96 hrs.

[4] = Stability study of milled Form A in open vials; type: physicochemical; settings: up to 8 weeks
Experimental: (§1) Milling of Form A may optimize certain PK properties. A scaled up Form A lot was milled and also placed on stability studies (40° C./75% RH, 25° C./60% RH, open vials). Three more lots were also milled which behaved similarly upon milling. A milled representative lot was characterized and the physical form was determined. This lot was slurried in 100% ethanol to obtain Form A and milled using a jet mill at for 3.5 hrs with 60 psi pressure. […] The particle size analysis (PSD) was determined to be D10=0.7 μm, D50=2.7 μm, D90=6.7 μm. Post milling, a portion of the API (Active Pharmaceutical Ingredient, i.e. GDC-0077) batch was placed on stability at 40° C./75% RH and 25° C./60% RH in open vials. Solid-state data was collected at 4 and 8 weeks to evaluate effect of temperature and humidity on the physical form. The milled and stability samples were characterized by XRPD, PLM, DSC, TGA, Water sorption analysis and surface area analysis. DSC runs were performed in the modulated mode using non-hermetically crimped pans, a heating rate of 1° C./min from 0-175° C., modulation amplitude of ±1° C. and a period of 60 seconds.

[5] = Jet milling of Form A, physical form after size reduction; type: physicochemical; settings: jet mill
Experimental: as §1

[6] = Water solubility of Form A; type: physicochemical; settings: pH 7.06, water, room temperature, pH of 7.06
Excerpt: The trihydrate form was obtained by slurrying Form A in DI water over 4 days (RT), centrifuging the slurry to remove supernatant and then drying the solid at RT for a few hours.

[7] = Slurry bridging of Forms A and D (1:1) in n-propanol; type: physicochemical
Experimental: Based on Burger and Ramberger's “Heat of Fusion Rule” of polymorphism, two polymorphs are considered to be monotropic if the one with the higher melting point has a greater heat of fusion as well (Burger and Ramberger, Mikrochimica Acta (1979), 256). […] To confirm this further, a slurry bridging experiment was conducted at RT in n-propanol, which had previously yielded Form D from the crude API.
(§2) Deionized (DI) Water-ethanol (absolute alcohol) mixtures of different compositions ranging from 0-100% water were prepared and their water activities were measured using a water activity meter. Slurry experiments were set up at RT wherein 1:1 mixtures of trihydrate and anhydrous forms of GDC-0077 (40 mg total) were added to these solvent mixtures (1.5 mL liquid) and agitated at RT over 4 days. After 4 days, the samples were aliquoted and centrifuged. The solids were analyzed by XRPD and the supernatant was analyzed for water activity. 1:1 mixture of Forms A and D was slurried in in-propanol overnight at RT. The slurry was centrifuged and the solid form was analyzed by XRPD.

[8] = Isothermal TGA dehydration of Form B; type: physicochemical; settings: TGA held at 60° C.
Experimental: The desolvation behavior of Form B as well its ability to rehydrate was further characterized. […] As evident from the data, the hydrate dehydrates readily, losing almost all of its lattice water (12%) at 60° C. and rehydrates after 4 hours of equilibration which indicates easy passage of water in and out of the lattice. The water sorption desorption behavior of trihydrate Form B GDC-0077 at 25° C. is depicted in FIG. 10A. The dynamic vapor sorption experiment provides information about the dehydration behavior of Form B. Dehydration of Form B commences rapidly below 40% RH (desorption curve) and is complete by the time the sample is exposed to 0% RH. Although there is a hysteresis showing equilibrium lag, the anhydrous product rehydrates beyond 40% RH, equally readily. […] The trihydrate dehydrates in 2-3 steps whereas the anhydrate to hydrate formation occurs majorly in one step at >40% RH (25° C.).
Isothermal experiments: In a thermogravimetric analyzer (Q500 TGA, TA instruments), 3-4 mg of GDC-0077 samples were heated in an open aluminum pan from RT to 60° C. at a heating rate of 10° C./min held isothermally at 60° C. overnight. Samples were then either analyzed by XRPD or left to equilibrate at RT for 4 hours in the sample pan and then rerun isothermally at 60° C. using the same experimental parameters as mentioned above.

[9] = Slurry bridging of hydrate-anhydrate mixtures in ethanol-water mixtures, water activity; type: physicochemical; settings: RT
Experimental: as §2, with “XRPD. An Aqualab 4TEV (Decagon Devices, WA) was used as the water activity meter in the capacitance sensor mode to acquire data at 25±0.2° C. for solvent mixtures and slurry supernatants. Instrument was calibrated using vendor provided standards (saturated salt solutions) over the aw range of 0.25-1. All aw values are obtained after stabilization of three consecutive reads.” for “XRPD.”

PI3K = PI3K (Homo sapiens, UniProt P42336); settings: WO 2017/001645, US 2017/0015678, AACR 2017; cited from earlier work
[10] = Surface area analysis (BET); type: physicochemical; settings: for BET Surface Area: Krypton gas adsorption
Experimental: Surface area measurement was conducted using a Micromeritics ASAP 2460 with a Micromeritics Smart VacPrep attachment (Micromeritics Instrument Corp., GA). A sample of 500 mg-1 g was weighed into an empty ASAP 2460 tube and placed on the Smart VacPrep, degassed for 24 hours under ambient conditions and then exposed to Krypton gas adsorption at […] and 100 mm Hg hold pressure. An 11-point measurement was made in the relative pressure range of 0.050-0.300 and the data was analyzed using MicroActive software provided by the vendor.

[11] = listed as printed without sonication time
[12] = after jet milling 3.5 hrs, 60 psi

Sequence of PI3K (P42336 whole entry): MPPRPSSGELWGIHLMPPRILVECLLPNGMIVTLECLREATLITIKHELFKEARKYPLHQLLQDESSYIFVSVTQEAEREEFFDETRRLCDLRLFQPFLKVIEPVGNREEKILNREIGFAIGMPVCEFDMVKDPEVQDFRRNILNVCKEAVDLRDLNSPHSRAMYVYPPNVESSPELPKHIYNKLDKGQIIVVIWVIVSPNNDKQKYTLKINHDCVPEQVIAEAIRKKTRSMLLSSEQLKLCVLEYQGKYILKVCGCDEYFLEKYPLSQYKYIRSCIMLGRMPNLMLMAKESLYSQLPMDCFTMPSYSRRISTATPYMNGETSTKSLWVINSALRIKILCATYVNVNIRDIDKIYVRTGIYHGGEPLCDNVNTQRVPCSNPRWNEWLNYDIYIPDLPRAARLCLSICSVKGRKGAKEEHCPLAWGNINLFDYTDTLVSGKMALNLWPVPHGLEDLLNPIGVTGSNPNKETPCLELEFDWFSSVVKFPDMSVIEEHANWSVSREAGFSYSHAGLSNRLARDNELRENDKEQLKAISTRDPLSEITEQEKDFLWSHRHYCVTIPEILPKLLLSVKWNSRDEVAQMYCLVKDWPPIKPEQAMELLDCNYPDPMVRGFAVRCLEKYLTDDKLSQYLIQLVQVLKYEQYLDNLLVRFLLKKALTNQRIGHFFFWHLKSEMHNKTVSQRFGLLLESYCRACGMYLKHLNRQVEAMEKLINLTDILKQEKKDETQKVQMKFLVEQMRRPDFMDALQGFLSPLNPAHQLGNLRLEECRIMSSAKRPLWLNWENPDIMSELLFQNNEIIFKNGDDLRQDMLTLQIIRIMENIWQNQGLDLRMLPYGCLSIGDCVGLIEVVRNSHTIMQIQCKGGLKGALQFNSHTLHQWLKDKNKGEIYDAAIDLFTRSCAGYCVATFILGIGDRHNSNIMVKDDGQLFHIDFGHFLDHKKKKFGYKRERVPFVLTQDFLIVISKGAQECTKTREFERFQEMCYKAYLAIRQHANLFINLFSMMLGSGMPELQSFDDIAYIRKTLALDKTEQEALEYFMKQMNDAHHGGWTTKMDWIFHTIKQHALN
Sequence of PI3K (P27986 whole entry partner): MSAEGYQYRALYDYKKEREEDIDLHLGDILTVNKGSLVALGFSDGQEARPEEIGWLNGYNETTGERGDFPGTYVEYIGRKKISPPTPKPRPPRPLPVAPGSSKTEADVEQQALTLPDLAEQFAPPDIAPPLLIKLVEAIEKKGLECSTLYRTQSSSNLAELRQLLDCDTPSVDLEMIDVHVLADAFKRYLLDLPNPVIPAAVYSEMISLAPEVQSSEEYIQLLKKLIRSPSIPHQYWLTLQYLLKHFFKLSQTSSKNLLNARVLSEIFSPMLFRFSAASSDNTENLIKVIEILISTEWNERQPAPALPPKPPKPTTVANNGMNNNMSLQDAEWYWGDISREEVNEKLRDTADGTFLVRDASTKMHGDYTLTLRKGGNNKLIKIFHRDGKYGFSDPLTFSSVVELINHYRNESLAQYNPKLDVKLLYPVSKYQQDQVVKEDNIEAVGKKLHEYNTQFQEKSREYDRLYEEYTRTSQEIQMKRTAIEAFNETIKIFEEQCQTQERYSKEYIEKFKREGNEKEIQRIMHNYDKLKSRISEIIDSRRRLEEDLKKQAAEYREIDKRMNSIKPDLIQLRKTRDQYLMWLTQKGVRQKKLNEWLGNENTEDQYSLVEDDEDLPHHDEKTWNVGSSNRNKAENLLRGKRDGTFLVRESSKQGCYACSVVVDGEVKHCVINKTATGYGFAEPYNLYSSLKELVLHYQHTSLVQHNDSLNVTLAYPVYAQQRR

SMILES: C[C@H](Nc1ccc2c(c1)OCCn1cc(N3C(=O)OC[C@H]3C(F)F)nc1-2)C(N)=O [Form A, (S)-2-((2-((S)-4-(difluoromethyl)-2-oxooxazolidin-3-yl)-5,6-dihydrobenzo[f]imidazo[1,2-d][1,4]oxazepin-9-yl)amino) propanamide]
D10 ([1]; 5 sec sonication): 3.24 μm
D50 ([1]; 5 sec sonication): 14.87 μm
D90 ([1]; 5 sec sonication): 40.92 μm
D[4.3] ([1]; 5 sec sonication): 19.09 μm
D10 ([1]; 15 sec sonication): 2.70 μm
D50 ([1]; 15 sec sonication): 10.93 μm
D90 ([1]; 15 sec sonication): 27.59 μm
D[4.3] ([1]; 15 sec sonication): 13.44 μm
D10 [1, 11]: 4.76 μm
D50 [1, 11]: 27.73 μm
D90 [1, 11]: 208.16 μm
D[4.3] [1, 11]: 74.60 μm
moisture uptake (water sorption) ([2]; 25° C., up to 90% RH): 0.25 % w/w
moisture uptake (water sorption) ([2]; 25° C., up to 90% RH, listed as Form I): < 0.3 % w/w
time by which form conversion is complete [3]: ≤ 96 h
time at which anhydrate to hydrate conversion was initiated ([3]; RT): 12 h
time to complete anhydrate to hydrate conversion ([3]; RT): ≤ 4 days
time within which anhydrate to hydrate conversion starts ([3]; hydrate marker peak by XRPD): ≤ 12 h
physical form stability ([4]; 25° C./60% RH): remains stable
physical form stability ([4]; 40° C./75% RH): remains stable
physical form upon milling [5]: remains stable
solubility [6]: 30.8 µg/mL (≈ 75.6 µM)
relative thermodynamic stability of the forms ([7]; Form A versus Form D, RT to 214° C.): thermodynamically stable form; also recorded: more stable form

SMILES: C[C@H](Nc1ccc2c(c1)OCCn1cc(N3C(=O)OC[C@H]3C(F)F)nc1-2)C(N)=O [Form B, (S)-2-((2-((S)-4-(difluoromethyl)-2-oxooxazolidin-3-yl)-5,6-dihydrobenzo[f]imidazo[1,2-d][1,4]oxazepin-9-yl)amino) propanamide]
RH below which dehydration commences (desorption curve) ([2]; 25° C.): below 40 % RH
RH range where intermediate dehydrated form is evident ([2]; 25° C., desorption): 20-50 % RH
RH beyond which the anhydrous product rehydrates ([2]; 25° C., resorption): > 40 % RH
lattice water lost on isothermal dehydration [8]: 12%

SMILES: C[C@H](Nc1ccc2c(c1)OCCn1cc(N3C(=O)OC[C@H]3C(F)F)nc1-2)C(N)=O [Form D, (S)-2-((2-((S)-4-(difluoromethyl)-2-oxooxazolidin-3-yl)-5,6-dihydrobenzo[f]imidazo[1,2-d][1,4]oxazepin-9-yl)amino) propanamide]
form conversion in slurry ([7]; Forms A and D 1:1, n-propanol, RT, overnight): converts to Form A

Continued, in another order:

aw of anhydrate-hydrate equilibrium [9]: 0.82-0.86
equilibrium RH (relative humidity) zone for the two forms [9]: 82-86%
water content equivalent to equilibrium RH zone [9]: 65-83 % w/w
SMILES: C[C@H](Nc1ccc2c(c1)OCCn1cc(N3C(=O)OC[C@H]3C(F)F)nc1-2)C(N)=O [GDC-0077, (S)-2-((2-((S)-4-(difluoromethyl)-2-oxooxazolidin-3-yl)-5,6-dihydrobenzo[f]imidazo[1,2-d][1,4]oxazepin-9-yl)amino) propanamide]
PI3K activity (PI3K): potent

D10 [1, 12]: 0.7 μm
D50 [1, 12]: 2.7 μm
D90 [1, 12]: 6.7 μm
increase in moisture uptake compared to the unmilled material ([2]; water sorption profile): 1 % w/w
BET Surface Area [10]: 6.68 ± 0.16 m2/g
BET Surface Area ([10]; listed as milled lot): 6.68 m2/g
surface area from sauter mean diameter (D3,2) ([10]; calculated from particle size): 3.42 m2/g
increase in surface area upon milling ([10]; milled versus unmilled): 10 ×
SMILES: C[C@H](Nc1ccc2c(c1)OCCn1cc(N3C(=O)OC[C@H]3C(F)F)nc1-2)C(N)=O [Jet Milled]

weight gain (water sorption) ([2]; up to 90% RH): 0.25%
BET Surface Area [10]: 0.78 ± 0.03 m2/g
BET Surface Area ([10]; listed as unmilled material): 0.78 m2/g
SMILES: C[C@H](Nc1ccc2c(c1)OCCn1cc(N3C(=O)OC[C@H]3C(F)F)nc1-2)C(N)=O [Unmilled]
